Literature values in patent US20040175691A1, “Use of the KCNQ2 and KCNQ3 genes for the discovery of agents useful in the treatment of neurological disorders” (priority 1998, published 2004).

What was measured:
[1] = mammalian CNS; cited from earlier work
M-current = molecular target: T1, M-current (Rattus norvegicus, UniProt O88943+O88944); conditions: data adapted from Costa and Brown; read-out: IC50 for blockade of M-current; cited from earlier work
T1 construct: Recordings of the M-current in sympathetic neurons in intact ganglia were performed at room temperature; from tissue

For `O=C1N(c2ccccc2)c2ccccc2C1(Cc1ccncc1)Cc1ccncc1` [Linopirdine, 3,3-bis(4-pyridinylmethyl)-1-phenylindolin-2-one], the “K+-stimulated release of acetylcholine, dopamine and glutamate” value [1] is given as “enhance K^+-stimulated release of acetylcholine, dopamine and glutamate” and the IC50 (M-current) is given as 7 ± 1.1 µM.
